The text below walks through data of patent US8101198B2, “Osteogenic enhancer composition” (The Regents of the University of California, priority 2007, dated 2012).

Test [1] deals with rat osteoblastic cells. Put plainly: Mineralization assays, Von Kossa and Alizarin Red stain (Example 1). The note with it: NAC added into culture medium, day 14; dose-dependent; p<0.001. It counts as cell-based. As for the experimental part: Bone marrow cells isolated from the femur of 8-week-old male Sprague-Dawley rats were placed into alpha-modified Eagle's medium supplemented with 15% fetal bovine serum, 50 µg/ml ascorbic acid, 10^−8M dexamethasone, 10 mM Na-β-glycerophosphate and Antibiotic-antimycotic solution containing 10,000 units/ml Penicillin G sodium, 10,000 mg/ml Streptomycin sulfate and 25 mg/ml Amphotericin B. Cells were incubated in a humidified atmosphere of 95% air, 5% CO2 at 37° C. At 80% confluency, the cells were detached using 0.25% Trypsin-1 mM EDTA-4Na and seeded either the polystyrene dish with or without NAC addition, bone substitute material (demineralized bone matrix, Orthoblast, IsoTis OrthoBiologics, Inc. Irvine, Calif.), collagen gel (PureCol, Inamed, Fremont, Calif.) or bone cement (Endurance MV, DePuy Orthopaedics, Warsaw, Ind.) with or without NAC incorporation at a density of 4×10^4 cells/cm^2. The culture medium was renewed every three days. The NAC incorporated bone graft substitute and collagen membrane materials were prepared by soaking each of the materials in NAC for 24 hours. The NAC-incorporated collagen gel was prepared by mixing the collagen gel and NAC. […] (%) was measured using a digitized image analysis system (Image Pro-plus, Media Cybernetics, MD). Three independent cultures were evaluated in each of the experimental groups.

A further test relates to osteoblastic culture. As to the kind of experiment: Gene expression analysis of bone-related genes by RT-PCR (Example 1). It counts as cell-based, rat. The note with it: relative to GAPDH. As for the experimental part:
Bone marrow cells isolated from the femur of 8-week-old male Sprague-Dawley rats were placed into alpha-modified Eagle's medium supplemented with 15% fetal bovine serum, 50 µg/ml ascorbic acid, 10^−8M dexamethasone, 10 mM Na-β-glycerophosphate and Antibiotic-antimycotic solution containing 10,000 units/ml Penicillin G sodium, 10,000 mg/ml Streptomycin sulfate and 25 mg/ml Amphotericin B. Cells were incubated in a humidified atmosphere of 95% air, 5% CO2 at 37° C. At 80% confluency, the cells were detached using 0.25% Trypsin-1 mM EDTA-4Na and seeded either the polystyrene dish with or without NAC addition, bone substitute material (demineralized bone matrix, Orthoblast, IsoTis OrthoBiologics, Inc. Irvine, Calif.), collagen gel (PureCol, Inamed, Fremont, Calif.) or bone cement (Endurance MV, DePuy Orthopaedics, Warsaw, Ind.) with or without NAC incorporation at a density of 4×10^4 cells/cm^2. The culture medium was renewed every three days. The NAC incorporated bone graft substitute and collagen membrane materials were prepared by soaking each of the materials in NAC for 24 hours. The NAC-incorporated collagen gel was prepared by mixing the collagen gel and NAC. The expression of bone-related genes was analyzed using the reverse transcription-polymerase chain reaction (RT-PCR). Total RNA in the cultures was extracted using TRIzol (Invitrogen, Carlsbad, Calif.) and purification column (RNeasy, Qiagen, Valencia, Calif.). Following DNAse I treatment, reverse transcription of 0.5 μg of total RNA was performed using MMLV reverse transcriptase (Clontech, Carlsbad, Calif.) in the presence of oligo(dT) primer (Clontech, Carlsbad, Calif.). The PCR reaction was performed using Taq DNA polymerase (EX Taq, Takara Bio, Madison, Wis.) to detect alpha-I type I collagen (collagen I), osteopontin, and osteocalcin mRNA. The primer sequences and PCR conditions are described previously. Resulting products were visualized on 1.5% agarose gel with ethidium bromide staining. The intensity of bands was quantified under UV light, and the values were normalized with reference to GAPDH mRNA.

The subject of test [2] is rat osteoblastic cells. Put plainly: Alkaline phosphatase (ALP) stain of osteoblastic culture (Example 1). It counts as cell-based. The note with it: NAC added into osteoblastic culture, day 7; dose-dependent up to 5 mM; p<0.001 vs without NAC. The method, then: Bone marrow cells isolated from the femur of 8-week-old male Sprague-Dawley rats were placed into alpha-modified Eagle's medium supplemented with 15% fetal bovine serum, 50 µg/ml ascorbic acid, 10^−8M dexamethasone, 10 mM Na-β-glycerophosphate and Antibiotic-antimycotic solution containing 10,000 units/ml Penicillin G sodium, 10,000 mg/ml Streptomycin sulfate and 25 mg/ml Amphotericin B. Cells were incubated in a humidified atmosphere of 95% air, 5% CO2 at 37° C. At 80% confluency, the cells were detached using 0.25% Trypsin-1 mM EDTA-4Na and seeded either the polystyrene dish with or without NAC addition, bone substitute material (demineralized bone matrix, Orthoblast, IsoTis OrthoBiologics, Inc. Irvine, Calif.), collagen gel (PureCol, Inamed, Fremont, Calif.) or bone cement (Endurance MV, DePuy Orthopaedics, Warsaw, Ind.) with or without NAC incorporation at a density of 4×10^4 cells/cm^2. The culture medium was renewed every three days. The NAC incorporated bone graft substitute and collagen membrane materials were prepared by soaking each of the materials in NAC for 24 hours. The NAC-incorporated collagen gel was prepared by mixing the collagen gel and NAC. […] The stained images were analyzed for ALP positive area defined as [(stained area/total dish area)×100)] […] Three independent cultures were evaluated in each the experimental groups.

Regarding `CC(=O)N[C@@H](CS)C(=O)O` [NAC, N-acetyl cysteine], in the test on rat osteoblastic cells [1], the “Von Kossa positive area (mineralizing capability)” value was “significantly increased”. Also, in the test on osteoblastic culture (NAC addition to the culture), the “gene expression level of Bmp2” value is recorded as “significantly elevated” and the “gene expression level of Runx2/cbfa1” value is recorded as “significantly elevated”. In the test with osteoblastic culture (culture with NAC, early stage of day 3), the osteocalcin expression entry is on record as “upregulated”. Moreover, in the test with osteoblastic culture (culture with NAC, up to day 14), the “expression of collagen I” value was “upregulated” and the expression of osteopontin entry is on record as “upregulated”. Moreover, in the test with rat osteoblastic cells [2], the “alkaline phosphatase activity (ALP positive area)” value is recorded as “increased”.
